From ChEMBL document CHEMBL5715260, “Selectivity Literature for EUbOPEN Chemogenomic Library” (2024)
Values belong to the compound of their own block, whether it stands above or below them.

Assays:
[1] = target: Nuclear receptor subfamily 4immunitygroup A member 1 (Homo sapiens) (UniProt P22736); assay: Selectivity interaction (Reporter gene assay) EUB0001164a NR4A1; parameters: recommended concentration 1 uM
[2] = target: T1, Hepatocyte nuclear factor 4-alpha (Homo sapiens) (UniProt P41235); assay: Selectivity interaction (Reporter gene assay) EUB0001164a HNF4A; parameters: recommended concentration 1 uM
T1 sequence (whole entry): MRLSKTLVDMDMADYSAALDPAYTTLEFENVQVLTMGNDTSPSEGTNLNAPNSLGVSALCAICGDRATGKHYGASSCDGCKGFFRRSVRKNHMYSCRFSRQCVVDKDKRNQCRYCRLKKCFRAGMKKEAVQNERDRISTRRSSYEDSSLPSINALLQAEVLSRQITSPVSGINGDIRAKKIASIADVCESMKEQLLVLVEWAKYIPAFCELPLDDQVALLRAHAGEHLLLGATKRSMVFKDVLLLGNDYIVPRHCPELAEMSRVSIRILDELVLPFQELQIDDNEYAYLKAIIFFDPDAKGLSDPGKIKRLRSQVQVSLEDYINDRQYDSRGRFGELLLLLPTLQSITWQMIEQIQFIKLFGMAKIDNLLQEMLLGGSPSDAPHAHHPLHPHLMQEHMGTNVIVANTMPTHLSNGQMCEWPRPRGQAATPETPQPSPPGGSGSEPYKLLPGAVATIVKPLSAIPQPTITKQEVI

[3] = target: Nuclear receptor subfamily 2 group E member 1 (Homo sapiens) (UniProt Q9Y466); assay: Selectivity interaction (Reporter gene assay) EUB0001164a NR2E1; parameters: recommended concentration 1 uM
[4] = target: T2, Nuclear receptor subfamily 2 group C member 1 (Homo sapiens) (UniProt P13056); assay: Selectivity interaction (Reporter gene assay) EUB0001164a NR2C1; parameters: recommended concentration 1 uM
T2 sequence (whole entry): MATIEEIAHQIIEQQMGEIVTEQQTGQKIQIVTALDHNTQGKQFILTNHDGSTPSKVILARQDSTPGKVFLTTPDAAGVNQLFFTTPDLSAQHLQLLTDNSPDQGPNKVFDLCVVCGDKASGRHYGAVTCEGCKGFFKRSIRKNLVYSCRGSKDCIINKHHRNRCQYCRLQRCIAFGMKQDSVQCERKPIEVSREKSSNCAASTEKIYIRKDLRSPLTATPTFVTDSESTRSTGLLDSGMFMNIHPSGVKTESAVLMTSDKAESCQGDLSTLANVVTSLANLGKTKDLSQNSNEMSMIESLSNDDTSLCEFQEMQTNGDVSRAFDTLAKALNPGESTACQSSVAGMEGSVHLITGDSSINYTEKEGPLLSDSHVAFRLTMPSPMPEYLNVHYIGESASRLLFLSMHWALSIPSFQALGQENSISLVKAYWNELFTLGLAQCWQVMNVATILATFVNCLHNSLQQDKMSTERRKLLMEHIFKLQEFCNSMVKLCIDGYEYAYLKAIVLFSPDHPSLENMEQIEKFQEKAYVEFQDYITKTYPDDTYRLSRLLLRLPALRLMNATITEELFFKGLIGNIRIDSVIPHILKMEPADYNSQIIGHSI

[5] = target: T3, Retinoic acid receptor RXR-alpha (Homo sapiens) (UniProt P19793); assay: Selectivity interaction (Reporter gene assay) EUB0001164a RXRA; parameters: recommended concentration 1 uM; settings: reference bexarotene 1 uM, Selectivity number of off-targets 0.0, Selectivity number of targets 1.0, Source Knowledge inhouse
T3 sequence (whole entry): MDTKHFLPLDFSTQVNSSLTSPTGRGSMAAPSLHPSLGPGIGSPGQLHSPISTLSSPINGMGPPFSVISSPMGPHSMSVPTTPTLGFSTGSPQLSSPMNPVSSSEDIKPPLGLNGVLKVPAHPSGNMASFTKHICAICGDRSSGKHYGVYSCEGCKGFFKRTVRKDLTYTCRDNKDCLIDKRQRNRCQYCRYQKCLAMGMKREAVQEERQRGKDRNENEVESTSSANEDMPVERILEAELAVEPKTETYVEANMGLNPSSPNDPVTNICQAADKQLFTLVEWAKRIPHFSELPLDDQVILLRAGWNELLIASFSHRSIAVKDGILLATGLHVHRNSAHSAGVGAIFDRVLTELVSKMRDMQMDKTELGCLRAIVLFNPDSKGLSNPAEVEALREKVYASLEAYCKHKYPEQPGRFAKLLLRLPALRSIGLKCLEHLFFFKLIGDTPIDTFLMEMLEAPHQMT

[6] = target: T4, Alpha trans-inducing protein (Human alphaherpesvirus 1) (UniProt A0A5J6DW59); assay: Selectivity interaction (Reporter gene assay) EUB0001164a UL48; parameters: recommended concentration 1 uM
[7] = target: Steroidogenic factor 1 (Homo sapiens) (UniProt Q13285); assay: Selectivity interaction (Reporter gene assay) EUB0001164a NR5A1; parameters: recommended concentration 1 uM
[8] = target: T2, Nuclear receptor subfamily 2 group C member 1 (Homo sapiens); assay: Selectivity interaction (Reporter gene assay) EUB0001163a NR2C1; parameters: recommended concentration 10 uM
[9] = target: Nuclear receptor subfamily 2 group E member 1 (Homo sapiens) (UniProt Q9Y466); assay: Selectivity interaction (Reporter gene assay) EUB0001163a NR2E1; parameters: recommended concentration 10 uM
[10] = target: T3, Retinoic acid receptor RXR-alpha (Homo sapiens); assay: Selectivity interaction (Reporter gene assay) EUB0001163a RXRA; parameters: recommended concentration 10 uM; settings: reference bexarotene 1 uM, Selectivity number of off-targets 0.0, Selectivity number of targets 1.0, Source Knowledge inhouse
[11] = target: T1, Hepatocyte nuclear factor 4-alpha (Homo sapiens); assay: Selectivity interaction (Reporter gene assay) EUB0001163a HNF4A; parameters: recommended concentration 10 uM
[12] = target: T4, Alpha trans-inducing protein (Human alphaherpesvirus 1); assay: Selectivity interaction (Reporter gene assay) EUB0001163a UL48; parameters: recommended concentration 10 uM
[13] = target: Nuclear receptor subfamily 4immunitygroup A member 1 (Homo sapiens) (UniProt P22736); assay: Selectivity interaction (Reporter gene assay) EUB0001163a NR4A1; parameters: recommended concentration 10 uM
[14] = target: Steroidogenic factor 1 (Homo sapiens) (UniProt Q13285); assay: Selectivity interaction (Reporter gene assay) EUB0001163a NR5A1; parameters: recommended concentration 10 uM
[15] = target: T4, Alpha trans-inducing protein (Human alphaherpesvirus 1); assay: Selectivity interaction (Reporter gene assay) EUB0001166a UL48; parameters: recommended concentration 1 uM
[16] = target: Nuclear receptor subfamily 2 group E member 1 (Homo sapiens) (UniProt Q9Y466); assay: Selectivity interaction (Reporter gene assay) EUB0001166a NR2E1; parameters: recommended concentration 1 uM
[17] = target: T3, Retinoic acid receptor RXR-alpha (Homo sapiens); assay: Selectivity interaction (Reporter gene assay) EUB0001166a RXRA; parameters: recommended concentration 1 uM; settings: reference bexarotene 1 uM, Selectivity number of off-targets 0.0, Selectivity number of targets 1.0, Source Knowledge inhouse
[18] = target: Steroidogenic factor 1 (Homo sapiens) (UniProt Q13285); assay: Selectivity interaction (Reporter gene assay) EUB0001166a NR5A1; parameters: recommended concentration 1 uM
[19] = target: T2, Nuclear receptor subfamily 2 group C member 1 (Homo sapiens); assay: Selectivity interaction (Reporter gene assay) EUB0001166a NR2C1; parameters: recommended concentration 1 uM
[20] = target: Nuclear receptor subfamily 4immunitygroup A member 1 (Homo sapiens) (UniProt P22736); assay: Selectivity interaction (Reporter gene assay) EUB0001166a NR4A1; parameters: recommended concentration 1 uM
[21] = target: T1, Hepatocyte nuclear factor 4-alpha (Homo sapiens); assay: Selectivity interaction (Reporter gene assay) EUB0001166a HNF4A; parameters: recommended concentration 1 uM
[22] = target: Nuclear receptor subfamily 4immunitygroup A member 1 (Homo sapiens) (UniProt P22736); assay: Selectivity interaction (Reporter gene assay) EUB0001158a NR4A1; parameters: recommended concentration 1 uM
[23] = target: Nuclear receptor subfamily 2 group E member 1 (Homo sapiens) (UniProt Q9Y466); assay: Selectivity interaction (Reporter gene assay) EUB0001158a NR2E1; parameters: recommended concentration 1 uM
[24] = target: T3, Retinoic acid receptor RXR-alpha (Homo sapiens); assay: Selectivity interaction (Reporter gene assay) EUB0001158a RXRA; parameters: recommended concentration 1 uM; settings: reference bexarotene 1 uM, Selectivity number of off-targets 0.0, Selectivity number of targets 1.0, Source Knowledge inhouse
[25] = target: T4, Alpha trans-inducing protein (Human alphaherpesvirus 1); assay: Selectivity interaction (Reporter gene assay) EUB0001158a UL48; parameters: recommended concentration 1 uM
[26] = target: T1, Hepatocyte nuclear factor 4-alpha (Homo sapiens); assay: Selectivity interaction (Reporter gene assay) EUB0001158a HNF4A; parameters: recommended concentration 1 uM
[27] = target: T2, Nuclear receptor subfamily 2 group C member 1 (Homo sapiens); assay: Selectivity interaction (Reporter gene assay) EUB0001158a NR2C1; parameters: recommended concentration 1 uM
[28] = target: Steroidogenic factor 1 (Homo sapiens) (UniProt Q13285); assay: Selectivity interaction (Reporter gene assay) EUB0001158a NR5A1; parameters: recommended concentration 1 uM
[29] = target: Nuclear receptor subfamily 2 group E member 1 (Homo sapiens) (UniProt Q9Y466); assay: Selectivity interaction (Reporter gene assay) EUB0001159a NR2E1; parameters: recommended concentration 1 uM
[30] = target: T2, Nuclear receptor subfamily 2 group C member 1 (Homo sapiens); assay: Selectivity interaction (Reporter gene assay) EUB0001159a NR2C1; parameters: recommended concentration 1 uM
[31] = target: T1, Hepatocyte nuclear factor 4-alpha (Homo sapiens); assay: Selectivity interaction (Reporter gene assay) EUB0001159a HNF4A; parameters: recommended concentration 1 uM
[32] = target: Steroidogenic factor 1 (Homo sapiens) (UniProt Q13285); assay: Selectivity interaction (Reporter gene assay) EUB0001159a NR5A1; parameters: recommended concentration 1 uM
[33] = target: T4, Alpha trans-inducing protein (Human alphaherpesvirus 1); assay: Selectivity interaction (Reporter gene assay) EUB0001159a UL48; parameters: recommended concentration 1 uM
[34] = target: T3, Retinoic acid receptor RXR-alpha (Homo sapiens); assay: Selectivity interaction (Reporter gene assay) EUB0001159a RXRA; parameters: recommended concentration 1 uM; settings: reference bexarotene 1 uM, Selectivity number of off-targets 0.0, Selectivity number of targets 1.0, Source Knowledge inhouse
[35] = target: Nuclear receptor subfamily 4immunitygroup A member 1 (Homo sapiens) (UniProt P22736); assay: Selectivity interaction (Reporter gene assay) EUB0001159a NR4A1; parameters: recommended concentration 1 uM

T4 sequence (A0A5J6DW59 as listed by the source): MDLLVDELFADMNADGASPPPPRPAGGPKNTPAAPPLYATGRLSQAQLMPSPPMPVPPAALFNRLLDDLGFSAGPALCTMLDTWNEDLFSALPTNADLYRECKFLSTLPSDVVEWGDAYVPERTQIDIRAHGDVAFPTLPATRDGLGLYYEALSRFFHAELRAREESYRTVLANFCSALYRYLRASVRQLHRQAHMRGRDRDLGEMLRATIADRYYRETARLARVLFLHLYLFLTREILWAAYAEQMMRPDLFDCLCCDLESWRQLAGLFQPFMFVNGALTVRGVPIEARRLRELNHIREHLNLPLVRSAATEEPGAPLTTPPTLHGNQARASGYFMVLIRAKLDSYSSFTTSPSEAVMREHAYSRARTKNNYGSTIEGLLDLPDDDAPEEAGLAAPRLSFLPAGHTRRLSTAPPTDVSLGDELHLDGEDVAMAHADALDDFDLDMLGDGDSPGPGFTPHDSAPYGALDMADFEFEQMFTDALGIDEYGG
Chain of Nuclear receptor subfamily 2 group E member 1 (Homo sapiens) (Q9Y466 whole entry): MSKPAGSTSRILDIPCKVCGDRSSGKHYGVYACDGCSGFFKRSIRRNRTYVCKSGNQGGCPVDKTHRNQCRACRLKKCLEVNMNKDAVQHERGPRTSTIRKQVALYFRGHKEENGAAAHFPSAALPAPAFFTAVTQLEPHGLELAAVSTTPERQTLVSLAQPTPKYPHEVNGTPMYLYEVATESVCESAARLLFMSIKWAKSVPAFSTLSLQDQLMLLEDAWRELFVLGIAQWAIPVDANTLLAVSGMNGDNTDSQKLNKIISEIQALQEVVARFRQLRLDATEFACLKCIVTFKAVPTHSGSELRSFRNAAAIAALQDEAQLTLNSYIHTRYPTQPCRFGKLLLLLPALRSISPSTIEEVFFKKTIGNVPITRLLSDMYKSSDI
Chain of Nuclear receptor subfamily 4immunitygroup A member 1 (Homo sapiens) (P22736 whole entry): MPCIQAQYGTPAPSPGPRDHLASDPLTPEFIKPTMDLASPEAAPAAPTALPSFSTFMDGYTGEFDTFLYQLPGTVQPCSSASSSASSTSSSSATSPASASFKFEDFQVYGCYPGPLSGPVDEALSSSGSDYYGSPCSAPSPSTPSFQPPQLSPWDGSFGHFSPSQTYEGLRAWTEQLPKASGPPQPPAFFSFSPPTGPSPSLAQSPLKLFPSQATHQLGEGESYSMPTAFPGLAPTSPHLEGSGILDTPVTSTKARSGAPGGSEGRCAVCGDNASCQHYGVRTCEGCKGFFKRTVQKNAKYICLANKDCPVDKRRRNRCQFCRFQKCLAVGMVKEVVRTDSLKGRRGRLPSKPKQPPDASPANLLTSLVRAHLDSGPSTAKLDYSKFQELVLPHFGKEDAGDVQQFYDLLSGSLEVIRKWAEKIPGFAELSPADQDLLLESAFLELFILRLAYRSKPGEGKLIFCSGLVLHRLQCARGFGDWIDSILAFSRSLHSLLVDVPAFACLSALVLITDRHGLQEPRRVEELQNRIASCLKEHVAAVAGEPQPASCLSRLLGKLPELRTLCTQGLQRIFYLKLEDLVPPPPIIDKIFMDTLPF
Chain of Steroidogenic factor 1 (Homo sapiens) (Q13285 whole entry): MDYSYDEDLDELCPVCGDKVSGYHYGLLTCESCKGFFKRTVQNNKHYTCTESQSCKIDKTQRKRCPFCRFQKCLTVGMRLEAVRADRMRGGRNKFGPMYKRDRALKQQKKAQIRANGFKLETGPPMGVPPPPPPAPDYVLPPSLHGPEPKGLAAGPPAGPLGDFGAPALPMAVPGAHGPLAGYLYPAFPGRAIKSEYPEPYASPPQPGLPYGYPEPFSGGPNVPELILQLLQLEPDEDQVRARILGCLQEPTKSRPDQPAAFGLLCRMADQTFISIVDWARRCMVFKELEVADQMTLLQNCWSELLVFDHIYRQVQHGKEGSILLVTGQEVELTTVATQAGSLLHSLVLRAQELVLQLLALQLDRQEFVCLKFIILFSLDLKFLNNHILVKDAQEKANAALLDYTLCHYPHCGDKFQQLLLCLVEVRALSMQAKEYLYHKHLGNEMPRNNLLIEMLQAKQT

- Fold activation [1]: 1.26
- Fold activation [2]: 1.29
- Remaining activity [3]: 0.776
- Fold activation [4]: 1.02
- Relative activation [5]: 0.903%
- P-value [6]: 0.0222
- Fold activation [7]: 1.07
Compound: CCOC(=O)c1ccc(CN(Cc2ccc(-c3cccc(S(C)(=O)=O)c3)cc2)S(=O)(=O)c2c(C)cc(C)cc2C)o1

- P-value [15]: 0.000455
- Remaining activity [16]: 0.931
- Relative activation [17]: 0.459%
- Fold activation [18]: 1.21
- Fold activation [19]: 1.38
- Fold activation [20]: 1.01
- Fold activation [21]: 1.15
Compound: CC(C)(O)c1cn(-c2ccc(-c3cccc(S(C)(=O)=O)c3)cc2)c(C(C)(C)c2ccccc2Cl)n1

More lines, now with the values behind:

Compound: CCOC(=O)Nc1ccc2c(c1)N(C(=O)CN(CC)CC)c1ccccc1CC2
- Fold activation [8]: 1.37
- Remaining activity [9]: 1.38
- Relative activation [10]: 0.623%
- Fold activation [11]: 1.08
- P-value [12]: 0.011
- Remaining activity [13]: 1.21
- Fold activation [14]: 1.16

Compound: CC(=O)Nc1nc(C)c(S(=O)(=O)Nc2ccc(C(O)(C(F)(F)F)C(F)(F)F)cc2)s1
- Remaining activity [22]: 0.661
- Remaining activity [23]: 0.58
- Relative activation [24]: 0.191%
- P-value [25]: 3.31e-05
- Remaining activity [26]: 0.71
- Remaining activity [27]: 0.684
- Remaining activity [28]: 0.814

Compound: CCc1ccc(N(CC(C)C)S(=O)(=O)c2ccc(OCC3CCOCC3)c(CO)c2)cc1
- Remaining activity [29]: 0.852
- Remaining activity [30]: 0.852
- Remaining activity [31]: 0.994
- Remaining activity [32]: 0.989
- P-value [33]: 0.00142
- Relative activation [34]: 0.288%
- Remaining activity [35]: 0.905
